Assay results reported in ChEMBL document CHEMBL1140645, “Synthesis and in vitro activity of 2-thiazolylhydrazone derivatives compared with the activity of clotrimazole against clinical isolates of Candida spp” (Bioorg Med Chem Lett, 2007).
Converted amounts (≈) assume the structure as drawn.

What was measured:
Pichia kudriavzevii = test: Antifungal activity against Candida krusei after 24 hrs by broth microdilution method; format: functional
Candida parapsilosis = test: Antifungal activity against Candida parapsilosis after 24 hrs by broth microdilution method; format: functional; conditions: Lodderomyces parapsilosis
[Candida] sake = Antifungal activity against Candida sake after 24 hrs by broth microdilution method; format: functional; conditions: Fermentozyma sake
Candida albicans = test: Antifungal activity against Candida albicans after 24 hrs by broth microdilution method; format: functional
Nakaseomyces glabratus = test: Antifungal activity against Candida glabrata after 24 hrs by broth microdilution method; format: functional
Candida tropicalis = test: Antifungal activity against Candida tropicalis after 24 hrs by broth microdilution method; format: functional
[1] = Cytotoxicity against human EAhy926 cells assessed as cell survival fraction at 50 ug/ml after 24 hrs by trypan blue exclusion test; conditions: ea.hy 926, at 50 µg/mL
[2] = Cytotoxicity against human EAhy926 cells assessed as cell survival fraction at 5 ug/ml after 24 hrs by trypan blue exclusion test; conditions: ea.hy 926, at 5 µg/mL
[3] = Cytotoxicity against human EAhy926 cells assessed as cell survival fraction at 0.5 ug/ml after 24 hrs by trypan blue exclusion test; conditions: ea.hy 926, at 0.5 µg/mL
[4] = Cytotoxicity against human EAhy926 cells assessed as cell survival fraction at 0.05 ug/ml after 24 hrs by trypan blue exclusion test; conditions: ea.hy 926, at 0.05 µg/mL

SMILES	MIC (Pichia kudriavzevii)	MIC (Candida parapsilosis)	MIC ([Candida] sake)	MIC (Candida albicans)	MIC (Nakaseomyces glabratus)	MIC (Candida tropicalis)	viability at 24 h, 50 ug/ml [1]	viability at 24 h, 5 ug/ml [2]	viability at 24 h, 0.5 ug/ml [3]	viability at 24 h, 0.05 ug/ml [4]
CC1CCCC/C1=N\Nc1nc(-c2ccc(Br)cc2)cs1 (stereo unspecified)	64 µg/mL (≈ 176 µM)	8 µg/mL (≈ 22 µM)	16 µg/mL (≈ 43.9 µM)	4 µg/mL (≈ 11 µM)	2 µg/mL (≈ 5.49 µM)	32 µg/mL (≈ 87.8 µM)	–	–	–	–
CC1CCC/C(=N\Nc2nc(-c3ccc(Cl)cc3)cs2)C1 (stereo unspecified)	4 µg/mL (≈ 12.5 µM)	1 µg/mL (≈ 3.13 µM)	2 µg/mL (≈ 6.25 µM)	0.5 µg/mL (≈ 1.56 µM)	> 128 µg/mL	2 µg/mL (≈ 6.25 µM)	28.6%	50%	70%	73%
c1ccc(-c2csc(NN=C3CCCCCC3)n2)cc1	8 µg/mL (≈ 28 µM)	8 µg/mL (≈ 28 µM)	16 µg/mL (≈ 56.1 µM)	0.5 µg/mL (≈ 1.75 µM)	> 128 µg/mL	8 µg/mL (≈ 28 µM)	54.5%	80%	87.5%	94.7%
O=[N+]([O-])c1ccc(-c2csc(NN=C3CCCC3)n2)cc1	32 µg/mL (≈ 106 µM)	> 128 µg/mL	16 µg/mL (≈ 52.9 µM)	8 µg/mL (≈ 26.5 µM)	0.5 µg/mL (≈ 1.65 µM)	64 µg/mL (≈ 212 µM)	–	–	–	–
Brc1ccc(-c2csc(NN=C3CCCC3)n2)cc1	> 128 µg/mL	128 µg/mL (≈ 381 µM)	32 µg/mL (≈ 95.2 µM)	2 µg/mL (≈ 5.95 µM)	2 µg/mL (≈ 5.95 µM)	≥ 128 µg/mL	–	–	–	–
O=[N+]([O-])c1cccc(-c2csc(NN=C3CCCC3)n2)c1	> 128 µg/mL	> 128 µg/mL	16 µg/mL (≈ 52.9 µM)	1 µg/mL (≈ 3.31 µM)	0.5 µg/mL (≈ 1.65 µM)	64 µg/mL (≈ 212 µM)	–	–	–	–
CC1CCCC/C1=N\Nc1nc(-c2ccc(-c3ccccc3)cc2)cs1 (stereo unspecified)	16 µg/mL (≈ 44.3 µM)	16 µg/mL (≈ 44.3 µM)	16 µg/mL (≈ 44.3 µM)	32 µg/mL (≈ 88.5 µM)	64 µg/mL (≈ 177 µM)	64 µg/mL (≈ 177 µM)	–	–	–	–
CC1CCC/C(=N\Nc2nc(-c3ccc(F)cc3)cs2)C1 (stereo unspecified)	4 µg/mL (≈ 13.2 µM)	1 µg/mL (≈ 3.3 µM)	8 µg/mL (≈ 26.4 µM)	0.5 µg/mL (≈ 1.65 µM)	> 128 µg/mL	4 µg/mL (≈ 13.2 µM)	52.9%	60%	76.9%	80%
Cc1ccc(-c2csc(NN=C3CCCC3)n2)cc1	64 µg/mL (≈ 236 µM)	128 µg/mL (≈ 472 µM)	16 µg/mL (≈ 59 µM)	0.25 µg/mL (≈ 0.921 µM)	0.5 µg/mL (≈ 1.84 µM)	4 µg/mL (≈ 14.7 µM)	75%	80%	82%	85.4%
Cc1ccc(-c2csc(N/N=C3\CCCC(C)C3)n2)cc1 (stereo unspecified)	0.5 µg/mL (≈ 1.67 µM)	0.5 µg/mL (≈ 1.67 µM)	2 µg/mL (≈ 6.68 µM)	0.5 µg/mL (≈ 1.67 µM)	32 µg/mL (≈ 107 µM)	0.5 µg/mL (≈ 1.67 µM)	38.5%	72.7%	83.3%	84%
N#Cc1ccc(-c2csc(NN=C3CCCC3)n2)cc1	32 µg/mL (≈ 113 µM)	128 µg/mL (≈ 453 µM)	32 µg/mL (≈ 113 µM)	2 µg/mL (≈ 7.08 µM)	0.5 µg/mL (≈ 1.77 µM)	32 µg/mL (≈ 113 µM)	76%	81%	84.7%	88.9%
c1ccc(-c2ccc(-c3csc(NN=C4CCCC4)n3)cc2)cc1	> 128 µg/mL	> 128 µg/mL	32 µg/mL (≈ 96 µM)	16 µg/mL (≈ 48 µM)	> 128 µg/mL	64 µg/mL (≈ 192 µM)	–	–	–	–
CC1CCC/C(=N\Nc2nc(-c3ccc(C#N)cc3)cs2)C1 (stereo unspecified)	4 µg/mL (≈ 12.9 µM)	0.5 µg/mL (≈ 1.61 µM)	4 µg/mL (≈ 12.9 µM)	0.5 µg/mL (≈ 1.61 µM)	> 128 µg/mL	2 µg/mL (≈ 6.44 µM)	25%	50%	68.7%	68.8%
CC1CCCC/C1=N\Nc1nc(-c2cccc([N+](=O)[O-])c2)cs1 (stereo unspecified)	> 128 µg/mL	8 µg/mL (≈ 24.2 µM)	16 µg/mL (≈ 48.4 µM)	0.5 µg/mL (≈ 1.51 µM)	16 µg/mL (≈ 48.4 µM)	64 µg/mL (≈ 194 µM)	83.3%	85.7%	86%	88.8%
COc1ccc(-c2csc(N/N=C3\CCCC(C)C3)n2)cc1 (stereo unspecified)	2 µg/mL (≈ 6.34 µM)	1 µg/mL (≈ 3.17 µM)	8 µg/mL (≈ 25.4 µM)	0.5 µg/mL (≈ 1.59 µM)	> 128 µg/mL	2 µg/mL (≈ 6.34 µM)	54.5%	72.7%	80%	83.3%
Clc1ccc(-c2csc(NN=C3CCCC3)n2)cc1	64 µg/mL (≈ 219 µM)	8 µg/mL (≈ 27.4 µM)	16 µg/mL (≈ 54.8 µM)	0.25 µg/mL (≈ 0.857 µM)	0.5 µg/mL (≈ 1.71 µM)	32 µg/mL (≈ 110 µM)	64.9%	81%	89.2%	86%
COc1ccc(-c2csc(NN=C3CCCC3)n2)cc1	32 µg/mL (≈ 111 µM)	8 µg/mL (≈ 27.8 µM)	32 µg/mL (≈ 111 µM)	0.5 µg/mL (≈ 1.74 µM)	2 µg/mL (≈ 6.96 µM)	64 µg/mL (≈ 223 µM)	66%	76.6%	82.4%	85%
